Measurements published in patent US12281121B2, “N-containing heteroaryl derivative and pharmaceutical composition comprising same as active ingredient for prevention or treatment of cancer” (VORONOI Inc., priority 2019, dated 2025).

Columns and labels:
[1] = target: T1, CCDC6-RET (Homo sapiens, UniProt P07949); assay: RET enzyme inhibitory ability, ADP-Glo kinase assay; format: biochemical; conditions: ATP 10 μM, 25° C., 1 hour
T1 construct: the other entry of the earlier key: CCDC6 (Q16204, Coiled-coil domain-containing protein 6)
T1 sequence (P07949 with tags, fused parts or gaps): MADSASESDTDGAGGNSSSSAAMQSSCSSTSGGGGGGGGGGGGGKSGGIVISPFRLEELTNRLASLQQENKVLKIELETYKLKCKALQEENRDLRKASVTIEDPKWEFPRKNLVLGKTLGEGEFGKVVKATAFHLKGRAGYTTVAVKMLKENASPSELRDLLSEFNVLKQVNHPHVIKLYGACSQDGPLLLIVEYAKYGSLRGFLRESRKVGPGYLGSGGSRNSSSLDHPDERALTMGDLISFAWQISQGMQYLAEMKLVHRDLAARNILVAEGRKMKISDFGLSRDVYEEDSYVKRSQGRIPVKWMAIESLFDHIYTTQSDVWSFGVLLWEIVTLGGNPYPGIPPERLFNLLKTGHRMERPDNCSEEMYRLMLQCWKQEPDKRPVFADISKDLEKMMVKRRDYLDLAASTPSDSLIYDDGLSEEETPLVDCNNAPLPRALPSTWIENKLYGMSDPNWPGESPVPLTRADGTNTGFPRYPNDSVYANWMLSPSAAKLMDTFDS
Method in brief: (§1)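 Purified human RET (658-end, 0.8 ng) was reacted with 10 μM ATP and substrate 1 h at 25°C in 40 mM Tris-HCl pH 7.4, 20 mM MgCl2, 0.5 mg/mL BSA, 50 μM DTT. ADP-Glo luminescence was normalised to solvent control; IC50 (nM) from 3 datasets.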

[2] = target: RET (V804M) (Homo sapiens, UniProt P07949, V804M); assay: as above; format: biochemical; conditions: ATP 10 μM, 25° C., 1 hour
Chain of RET (V804M) (P07949 658-1114 V804M limits assumed): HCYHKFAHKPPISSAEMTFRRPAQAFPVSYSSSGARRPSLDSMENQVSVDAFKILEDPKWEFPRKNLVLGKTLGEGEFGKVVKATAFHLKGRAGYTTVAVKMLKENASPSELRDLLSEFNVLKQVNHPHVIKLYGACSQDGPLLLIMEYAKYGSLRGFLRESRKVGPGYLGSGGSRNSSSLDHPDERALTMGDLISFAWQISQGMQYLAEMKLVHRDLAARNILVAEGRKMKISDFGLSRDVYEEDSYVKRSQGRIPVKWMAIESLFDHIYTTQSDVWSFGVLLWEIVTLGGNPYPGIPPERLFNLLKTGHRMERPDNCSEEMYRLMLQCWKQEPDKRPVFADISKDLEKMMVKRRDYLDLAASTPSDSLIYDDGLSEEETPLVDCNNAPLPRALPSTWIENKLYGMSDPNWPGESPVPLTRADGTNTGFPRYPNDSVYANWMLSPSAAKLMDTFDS
Method in brief: as §1

[3] = target: T2, RET (WT) (Homo sapiens, UniProt P07949); assay: as above; format: biochemical; conditions: ATP 10 μM, 25° C., 1 hour
T2 construct: human RET (658-end, SIGNALCHEM); purchased SIGNALCHEM
T2 sequence (P07949 658-1114 limits assumed): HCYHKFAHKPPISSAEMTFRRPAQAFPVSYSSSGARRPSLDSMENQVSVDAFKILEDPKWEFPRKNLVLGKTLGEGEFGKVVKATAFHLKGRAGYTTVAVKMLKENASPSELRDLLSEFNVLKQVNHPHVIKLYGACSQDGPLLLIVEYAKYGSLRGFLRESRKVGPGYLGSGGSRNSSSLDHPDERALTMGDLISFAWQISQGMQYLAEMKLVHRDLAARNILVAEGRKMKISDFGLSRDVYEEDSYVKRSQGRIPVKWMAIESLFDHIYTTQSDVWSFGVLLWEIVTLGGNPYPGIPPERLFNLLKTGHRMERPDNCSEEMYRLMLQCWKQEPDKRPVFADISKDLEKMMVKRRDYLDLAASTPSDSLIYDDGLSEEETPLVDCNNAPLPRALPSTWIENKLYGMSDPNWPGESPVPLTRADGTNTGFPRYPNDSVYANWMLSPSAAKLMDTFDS
Method in brief: as §1

[4] = system: Ba/F3 (naive) cells; assay: Cell proliferation inhibition, CellTiter-Glo; format: cell-based; conditions: Mus musculus, BaF3; Ba/F3 not transduced, 72 hours
Method in brief: (§2)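 Ba/F3 lines (naive or RET-fusion-transduced, IL-3 medium) and LC-2/ad cells exposed 72 h to compound, 12 three-fold dilutions spanning 0.3 nM–50 μM final. Viability read by CellTiter-Glo luminescence, in triplicate; GI50 derived from growth ratio (%) versus control.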

[5] = system: Ba/F3 CCDC6-RET (WT) cells; assay: Cell proliferation inhibition, CellTiter-Glo; format: cell-based; conditions: BaF3/CCDC6-RET, 72 hours
Method in brief: as §2

[6] = system: Ba/F3 KIF5B-RET (V804M) cells; assay: Cell proliferation inhibition, CellTiter-Glo; format: cell-based; conditions: Mus musculus, BaF3, 72 hours
Method in brief: as §2

[7] = system: Ba/F3 KIF5B-RET (WT) cells; assay: Cell proliferation inhibition, CellTiter-Glo; format: cell-based; conditions: Mus musculus, BaF3, 72 hours
Method in brief: as §2

[8] = system: LC-2/ad cells (with CCDC6-RET gene); assay: Cell proliferation inhibition, CellTiter-Glo; format: cell-based; conditions: Homo sapiens; LC-2/ad lung cancer cell line, 72 hours
Method in brief: as §2

[9] = system: TT cells; assay: Cell proliferation inhibition, CellTiter-Glo; format: cell-based; conditions: Homo sapiens; TT thyroid cancer cell line, 72 hours
[10] = system: FLT3(ITD); assay: ScanMAX Kinase analysis panel (DiscoverX); format: binding; conditions: 1 μM
Protocol: (§3) The following experiment was performed in order to evaluate the inhibitory activity of the compound according to the present invention against more enzymes. Specifically, for Examples 1 and 3 selected among the Example compounds of the present invention, the enzyme (kinase) selectivity was set to be measured by commissioning DiscoverX, and an experiment was conducted using a ScanMAX™ Kinase analysis panel. In this case, the concentration of the drug treated with the enzyme was set to 1 μM in DMSO, the adjusted percentage (% control) was determined in the same manner as in the following Equation 1, and the results are shown in the following Table 3. (Example compound−Positive control)/(Negative control−Positive control)×100 [Equation 1]
(§4) In addition, the enzyme selectivity of the present invention was determined to be active against the corresponding enzyme when the adjusted percentage was <35% (that is, less than 35%).

[11] = target: T3, JAK1(JH2domain-pseudokinase) (Homo sapiens, UniProt P23458); assay: ScanMAX Kinase analysis panel (DiscoverX); format: binding; conditions: read-out: adjusted percentage (% control)
T3 construct: JAK1(JH2domain-pseudokinase); purchased DiscoverX ScanMAX Kinase analysis panel
T3 sequence (P23458 583-855 limits assumed): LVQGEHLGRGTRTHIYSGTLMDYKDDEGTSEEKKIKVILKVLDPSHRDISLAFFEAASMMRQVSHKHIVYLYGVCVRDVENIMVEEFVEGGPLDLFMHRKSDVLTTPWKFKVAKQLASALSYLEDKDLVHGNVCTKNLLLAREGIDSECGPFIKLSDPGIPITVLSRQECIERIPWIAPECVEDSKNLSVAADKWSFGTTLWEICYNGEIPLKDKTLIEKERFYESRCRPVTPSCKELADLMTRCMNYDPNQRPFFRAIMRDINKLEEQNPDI
Protocol: as §3, §4

COc1ccc(CN2C3CC2CN(c2ccc(-c4nc(Nc5cc(C)[nH]n5)c5ccccc5n4)cn2)C3)cn1 [Example 3, 2-(6-(6-((6-methoxypyridin-3-yl)methyl)-3,6-diazabicyclo [3.1.1]heptan-3-yl)pyridin-3-yl)-N-(5-methyl-1H-pyrazol-3-yl)quinazolin-4-amine]
IC50 [1]: 0.9 nM | IC50 [2]: 0.7 nM | IC50 [3]: 7 nM | GI50 [4]: 2300 nM | GI50 [5]: 51 nM | GI50 [6]: 3 nM | GI50 [7]: 13 nM | GI50 [8]: 60 nM | GI50 [9]: 30 nM | adjusted percentage (% control) [10]: 1.2% | remaining binding at 1 µM [11]: 2.9%

COc1ccc(CN2C3CC2CN(c2ccc(-c4nc(Nc5cc(C)[nH]n5)c5occc5n4)cn2)C3)cn1 [Example 1, 2-(6-(6-((6-methoxypyridin-3-yl)methyl)-3,6-diazabicyclo[3.1.1]heptan-3-yl)pyridin-3-yl)-N-(5-methyl-1H-pyrazol-3-yl)furo[3,2-d]pyrimidin-4-amine]
IC50 [1]: 1.8 nM | IC50 [2]: 2.2 nM | IC50 [3]: 18 nM | GI50 [4]: 4900 nM | GI50 [5]: 59 nM | GI50 [6]: 19 nM | GI50 [7]: 19 nM | GI50 [8]: 14 nM | GI50 [9]: 88 nM | adjusted percentage (% control) [10]: 4.9% | remaining binding at 1 µM [11]: 21%
